Measurements: patent US20130029981A1, “COMPOUNDS, COMPOSITIONS, AND METHODS FOR CONTROLLING BIOFILMS” (Katholieke Universiteit Leuven, priority 2009, published 2013)

Experiments:
Test in all cases: Bioscreen assay: influence on planktonic growth curve
S. Typhimurium ATCC14028 [1] = type: cell-based, Salmonella Typhimurium; settings: 400 μM
Description: (§1) Some of the tested compounds show a concentration range in which biofilm formation is inhibited but no effect on planktonic growth is observed. These compounds are particularly interesting for prevention of biofilm formation since the development of resistance against these compounds is less likely. Table 8 indicates whether the different compounds have an effect on the planktonic growth of the bacteria at the IC50 for biofilm inhibition. To construct Table 8, the effect of the tested compounds on the growth curve of the bacteria was determined at a concentration equal to the IC50 for biofilm inhibition, by using the Bioscreen system available from Oy Growth Curves Ab Ltd). The Bioscreen device from Oy Growth Curves Ab Ltd was used for measuring the influence of the chemical compounds on the planktonic growth of Salmonella Typhimurium and Pseudomonas aeruginosa. The Bioscreen is a computer controlled incubator/reader/shaker that uses 10×10 well microtiter plates and measures light absorbance of each well at a specified wave length in function of time. An overnight culture of S. […] The broth used was TSB 1/20 for the experiments at 16° C. and 25° C. For experiments at 37° C. CFA medium was used for S. […] As a control 3 μl of the appropriate solvent (DMSO or EtOH) was also added to the plate in 3- or 4-fold. The microtiter plate was incubated in the Bioscreen device at 16° C., 25° C. or 37° C. for at least 36 hours, with continious medium shaking. The absorbance of each well was measured at 600 nm each 15 minutes. Excel was used to generate the growth curves for treated the treated wells and the untreated control wells. Some of the compounds show a concentration range in which biofilm formation is inhibited but no effect on the planktonic growth is observed. Table 14 indicates if the different compounds have an effect on the planktonic growth of the bacteria at the IC50 for biofilm inhibition. To construct this table the effect of the compounds on the growth curve of the bacteria was determined at a concentration equal to the IC50 for biofilm inhibtion, by using the Bioscreen system from Oy Growth Curves Ab Ltd.

S. Typhimurium ATCC14028 [2] = type: cell-based, Salmonella Typhimurium; parameters: key: x: no influence on the planktonic growth at the IC50 for biofilm inhibition; ∘: planktonic growth is retarded at the IC50 for biofilm inhibition; settings: planktonic growth at the IC50 for biofilm inhibition, 25° C.
Description: as §1

[3] = system: Pseudomonas aeruginosa PA14; type: cell-based; parameters: key: x: no influence on the planktonic growth at the IC50 for biofilm inhibition; ∘: planktonic growth is retarded at the IC50 for biofilm inhibition; settings: planktonic growth at the IC50 for biofilm inhibition, 25° C.
Description: as §1, with “Table 14 indicates if the different compounds have an effect on the planktonic growth of the bacteria at the IC50 for biofilm inhibition.” left out

[4] = system: Pseudomonas aeruginosa PA14; type: cell-based; parameters: key: x: no influence on planktonic growth at the IC50 for biofilm inhibition; planktonic growth is retarded at the IC50 for biofilm inhibition; settings: planktonic growth at the IC50 for biofilm inhibition, 25° C.
Description: Some of the tested compounds show a concentration range in which biofilm formation is inhibited but no effect on planktonic growth is observed. These compounds are particularly interesting for prevention of biofilm formation since the development of resistance against these compounds is less likely. Table 8 indicates whether the different compounds have an effect on the planktonic growth of the bacteria at the IC50 for biofilm inhibition. To construct Table 8, the effect of the tested compounds on the growth curve of the bacteria was determined at a concentration equal to the IC50 for biofilm inhibition, by using the Bioscreen system available from Oy Growth Curves Ab Ltd). The Bioscreen device from Oy Growth Curves Ab Ltd was used for measuring the influence of the chemical compounds on the planktonic growth of Salmonella Typhimurium and Pseudomonas aeruginosa. The Bioscreen is a computer controlled incubator/reader/shaker that uses 10×10 well microtiter plates and measures light absorbance of each well at a specified wave length in function of time. An overnight culture of S. […] The absorbance of each well was measured at 600 nm each 15 minutes. […] To construct this table the effect of the compounds on the growth curve of the bacteria was determined at a concentration equal to the IC50 for biofilm inhibtion, by using the Bioscreen system from Oy Growth Curves Ab Ltd.

S. Typhimurium ATCC14028 [5] = type: cell-based, Salmonella Typhimurium; parameters: key: x: no influence on planktonic growth at the IC50 for biofilm inhibition; planktonic growth is retarded at the IC50 for biofilm inhibition; settings: planktonic growth at the IC50 for biofilm inhibition, 25° C.
Description: as §1, with “Table 14 indicates if the different compounds have an effect on the planktonic growth of the bacteria at the IC50 for biofilm inhibition.” left out

SMILES	Effect on growth at 400 μM (S. Typhimurium ATCC14028 [1])	Influence on growth (S. Typhimurium ATCC14028 [2])	Influence on growth [3]	Influence on growth [4]	Influence on growth (S. Typhimurium ATCC14028 [5])
OC1(c2ccc(I)cc2)C[n+]2cccnc2N1Cc1ccccc1.[Br-] (stereo not shown) [Compound 73]	∘	x	x		
OC1(c2ccc(Cl)cc2)C[n+]2cccnc2N1C1CCCCC1.[Br-] (stereo not shown) [Compound 64]		x	x		
CCCCCCN1c2nccc[n+]2CC1(O)c1ccc([N+](=O)[O-])cc1.[Br-] (stereo not shown) [Compound 34]		x			
O=[N+]([O-])c1ccc(C2(O)C[n+]3cccnc3N2C2CCCCCCCCCCC2)cc1.[Br-] (stereo not shown) [Compound 69]				∘	∘
OC1(c2ccc(-c3ccccc3)cc2)C[n+]2cccnc2N1C1CCCC1.[Br-] (stereo not shown) [R1=Cyclopentyl, R3=4-biphenylyl, R4=H, 1-cyclopentyl-2-hydroxy-2-(4-biphenylyl)-2,3-dihydro-1H-imidazo[1,2-a]pyrimidin-4-ium bromide]		x	x		
